“And” between values parts separate entries of the source, which are not always exact repeats. Equal entries are not always repeated. Inconclusive results and toxic doses are left out.
Tested on: B6C3F1 mice, B16 melanoma ip, median survival T/C
Experiment: NCI In Vivo Anticancer Drug Screen. Data for tumor model B16 Melanoma (intraperitoneal) in B6C3F1 mice
Conditions: endpoint: median survival time, higher = longer survival
Summary of the method: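 Mice bearing transplanted tumor were dosed with compound or vehicle, and survival was recorded. Activity is expressed as the treated-group measurement (T) divided by the vehicle control measurement (C).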

[1] = dose: 12.5 mg/kg/injection, schedule: Q01DX009 (ip), vehicle: Klucel (hydroxypropylcellulose) (HPC)
[2] = dose: 25.0 mg/kg/injection, schedule: Q01DX009 (ip), vehicle: Klucel (hydroxypropylcellulose) (HPC)
[3] = dose: 50.0 mg/kg/injection, schedule: Q01DX009 (ip), vehicle: Klucel (hydroxypropylcellulose) (HPC)
[4] = dose: 100.0 mg/kg/injection, schedule: Q01DX009 (ip), vehicle: Klucel (hydroxypropylcellulose) (HPC)
[5] = dose: 200.0 mg/kg/injection, schedule: Q01DX009 (ip), vehicle: Klucel (hydroxypropylcellulose) (HPC)

O=P1(N(CCCl)CCCl)NCCCO1 (stereo not given)
T/C (dose: 12.5 mg/kg/injection, schedule: Q01DX009 (ip), vehicle: saline): 121 % of control | T/C (dose: 18.75 mg/kg/injection, schedule: Q01DX005 (ip), vehicle: saline): 104 % of control | T/C (dose: 18.75 mg/kg/injection, schedule: Q01DX005 (iv), vehicle: saline): 111 % of control | T/C (dose: 25.0 mg/kg/injection, schedule: Q01DX001 (ip), vehicle: saline): 108 % of control and 103 % of control | T/C (dose: 37.5 mg/kg/injection, schedule: Q01DX001 (ip), vehicle: saline): 106 % of control | T/C (dose: 37.5 mg/kg/injection, schedule: Q01DX001 (iv), vehicle: saline): 104 % of control | T/C (dose: 37.5 mg/kg/injection, schedule: Q01DX005 (ip), vehicle: saline): 121 % of control | T/C (dose: 50.0 mg/kg/injection, schedule: Q01DX001 (ip), vehicle: saline): 111 % of control and 103 % of control | T/C (dose: 50.0 mg/kg/injection, schedule: Q01DX009 (ip), vehicle: saline): 154 % of control | T/C (dose: 75.0 mg/kg/injection, schedule: Q01DX001 (ip), vehicle: saline): 116 % of control | T/C (dose: 75.0 mg/kg/injection, schedule: Q01DX001 (iv), vehicle: saline): 114 % of control | T/C (dose: 75.0 mg/kg/injection, schedule: Q01DX005 (iv), vehicle: saline): 166 % of control | T/C (dose: 150.0 mg/kg/injection, schedule: Q01DX005 (ip), vehicle: saline): 190 % of control | T/C (dose: 200.0 mg/kg/injection, schedule: Q01DX001 (ip), vehicle: saline): 157 % of control and 161 % of control | T/C (dose: 300.0 mg/kg/injection, schedule: Q01DX001 (ip), vehicle: saline): 185 % of control | T/C (dose: 300.0 mg/kg/injection, schedule: Q01DX001 (iv), vehicle: saline): 166 % of control

O=C1C2CC(CN3CCCCC23)C2CCCCN12 (stereo not given)
T/C (dose: 37.5 mg/kg/injection, schedule: Q01DX009 (ip), vehicle: saline): 104 % of control | T/C (dose: 75.0 mg/kg/injection, schedule: Q01DX009 (ip), vehicle: saline): 105 % of control | T/C (dose: 150.0 mg/kg/injection, schedule: Q01DX009 (ip), vehicle: saline): 97 % of control

O=NN(CCCl)C(=O)NC1CCCCC1
T/C (dose: 3.12 mg/kg/injection, schedule: Q01DX001 (ip), vehicle: carboxymethylcellulose (CMC)): 103 % of control | T/C (dose: 3.12 mg/kg/injection, schedule: Q01DX005 (ip), vehicle: carboxymethylcellulose (CMC)): 103 % of control | T/C (dose: 6.25 mg/kg/injection, schedule: Q01DX001 (ip), vehicle: carboxymethylcellulose (CMC)): 99 % of control | T/C (dose: 6.25 mg/kg/injection, schedule: Q01DX005 (ip), vehicle: carboxymethylcellulose (CMC)): 112 % of control | T/C (dose: 12.5 mg/kg/injection, schedule: Q01DX001 (ip), vehicle: carboxymethylcellulose (CMC)): 98 % of control | T/C (dose: 12.5 mg/kg/injection, schedule: Q01DX005 (ip), vehicle: carboxymethylcellulose (CMC)): 114 % of control | T/C (dose: 32.0 mg/kg/injection, schedule: Q01DX009 (ip), vehicle: Klucel (hydroxypropylcellulose) (HPC)): 86 % of control | T/C (dose: 50.0 mg/kg/injection, schedule: Q01DX001 (ip), vehicle: carboxymethylcellulose (CMC)): 177 % of control | T/C (dose: 50.0 mg/kg/injection, schedule: Q01DX005 (ip), vehicle: carboxymethylcellulose (CMC)): 172 % of control | T/C (dose: 100.0 mg/kg/injection, schedule: Q01DX001 (ip), vehicle: carboxymethylcellulose (CMC)): 204 % of control | T/C (dose: 100.0 mg/kg/injection, schedule: Q01DX005 (ip), vehicle: carboxymethylcellulose (CMC)): 107 % of control

CC(C)(C)C1CCCCC1
T/C [1]: 97 % of control | T/C [2]: 92 % of control | T/C [3]: 88 % of control

O=C(NC(CSSCC(NC(=O)OCc1ccccc1)C(=O)O)C(=O)O)OCc1ccccc1 (stereo not given)
T/C [2]: 104 % of control | T/C [3]: 94 % of control | T/C [4]: 102 % of control | T/C [5]: 88 % of control

CC(C)CC(NC(=O)CNC(=O)CNC(=O)OCc1ccccc1)C(=O)O (stereo not given)
T/C (dose: 0.75 mg/kg/injection, schedule: Q01DX009 (ip), vehicle: Klucel (hydroxypropylcellulose) (HPC)): 103 % of control | T/C (dose: 1.5 mg/kg/injection, schedule: Q01DX009 (ip), vehicle: Klucel (hydroxypropylcellulose) (HPC)): 107 % of control | T/C (dose: 3.0 mg/kg/injection, schedule: Q01DX009 (ip), vehicle: Klucel (hydroxypropylcellulose) (HPC)): 95 % of control | T/C (dose: 3.12 mg/kg/injection, schedule: Q01DX009 (ip), vehicle: Klucel (hydroxypropylcellulose) (HPC)): 101 % of control | T/C (dose: 6.0 mg/kg/injection, schedule: Q01DX009 (ip), vehicle: Klucel (hydroxypropylcellulose) (HPC)): 106 % of control | T/C (dose: 6.25 mg/kg/injection, schedule: Q01DX009 (ip), vehicle: Klucel (hydroxypropylcellulose) (HPC)): 92 % of control | T/C (dose: 12.0 mg/kg/injection, schedule: Q01DX009 (ip), vehicle: Klucel (hydroxypropylcellulose) (HPC)): 101 % of control | T/C [1]: 92 % of control | T/C [2]: 115 % of control and 104 % of control | T/C [3]: 100 % of control | T/C [4]: 122 % of control | T/C [5]: 89 % of control | T/C (dose: 400.0 mg/kg/injection, schedule: Q01DX009 (ip), vehicle: Klucel (hydroxypropylcellulose) (HPC)): 110 % of control

Reference: PubChem BioAssay AID200 (DTP/NCI, 2004)
